Data published in PubChem BioAssay AID248 (DTP/NCI, 2004).
Inconclusive results and toxic doses are left out. Cut-off read from the data, not from the text of the source: active = T/C of 150% or more; inactive = T/C below 125%.

Tested on: L1210 leukemia ip in BDF1 mice, survival T/C
Experiment: NCI In Vivo Anticancer Drug Screen. Data for tumor model L1210 Leukemia (intraperitoneal) in B6D2F1 (BDF1) mice
Settings: endpoint: mean survival time, higher = longer survival
Outline: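 Survival endpoint. Drug-treated group vs vehicle group, expressed as T divided by C. Tumor passaged by transplantation.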

[1] = dose: 25.0 mg/kg/injection, schedule: Q01DX009 (ip), vehicle: Klucel (hydroxypropylcellulose) (HPC)
[2] = dose: 50.0 mg/kg/injection, schedule: Q01DX009 (ip), vehicle: Klucel (hydroxypropylcellulose) (HPC)
[3] = dose: 100.0 mg/kg/injection, schedule: Q01DX009 (ip), vehicle: Klucel (hydroxypropylcellulose) (HPC)
[4] = dose: 100.0 mg/kg/injection, schedule: Q04DX002 (ip), vehicle: saline with Tween-80
[5] = dose: 200.0 mg/kg/injection, schedule: Q04DX002 (ip), vehicle: saline with Tween-80
[6] = dose: 400.0 mg/kg/injection, schedule: Q04DX002 (ip), vehicle: saline with Tween-80
[7] = dose: 200.0 mg/kg/injection, schedule: Q01DX009 (ip), vehicle: Klucel (hydroxypropylcellulose) (HPC)
[8] = dose: 400.0 mg/kg/injection, schedule: Q01DX009 (ip), vehicle: Klucel (hydroxypropylcellulose) (HPC)

Measured: T/C

COc1cc2c(cc1OC)C1CC(=O)C(CC(C)C)CN1CC2 (stereo not given)
inactive: [1] 105 % of control | [2] 103 % of control | [3] 117 % of control | dose: 100.0 mg/kg/injection, schedule: Q01DX009 (ip), vehicle: saline with Tween-80 102 % of control | dose: 200.0 mg/kg/injection, schedule: Q01DX009 (ip), vehicle: saline with Tween-80 90 % of control | dose: 400.0 mg/kg/injection, schedule: Q01DX009 (ip), vehicle: saline with Tween-80 89 % of control

CC1(C)C2CC=C(CCO)C1C2 (stereo not given)
inactive: dose: 100.0 mg/kg/injection, schedule: Q01DX001 (ip), vehicle: saline 98 % of control | [4] 98 % of control | dose: 200.0 mg/kg/injection, schedule: Q01DX001 (ip), vehicle: saline 93 % of control | [5] 110 % of control | [6] 93 % of control

Cc1cc([N+](=O)[O-])c(Nc2cccc(O)c2)c([N+](=O)[O-])c1
inactive: [3] 108 % of control | dose: 100.0 mg/kg/injection, schedule: Q04DX003 (ip), vehicle: Klucel (hydroxypropylcellulose) (HPC) 101 % of control | [7] 102 % of control | dose: 200.0 mg/kg/injection, schedule: Q04DX003 (ip), vehicle: Klucel (hydroxypropylcellulose) (HPC) 95 % of control | [8] 116 % of control | dose: 400.0 mg/kg/injection, schedule: Q04DX003 (ip), vehicle: Klucel (hydroxypropylcellulose) (HPC) 101 % of control

Nc1cc(C(=O)Nc2cccc(C3=NCCCN3)c2)ccc1C(=O)Nc1cccc(C2=NCCCN2)c1
inactive: dose: 0.17 mg/kg/injection, schedule: Q01DX Z (ip), vehicle: water 100 % of control | dose: 0.34 mg/kg/injection, schedule: Q01DX Z (ip), vehicle: water 90 % of control | dose: 0.68 mg/kg/injection, schedule: Q01DX Z (ip), vehicle: water 88 % of control

CC(C)/C=C(\C#N)C(=O)O
inactive: dose: 12.5 mg/kg/injection, schedule: Q04DX003 (ip), vehicle: Klucel (hydroxypropylcellulose) (HPC) 97 % of control | [1] 95 % of control | dose: 25.0 mg/kg/injection, schedule: Q04DX003 (ip), vehicle: Klucel (hydroxypropylcellulose) (HPC) 101 % of control | [2] 95 % of control | dose: 50.0 mg/kg/injection, schedule: Q04DX003 (ip), vehicle: Klucel (hydroxypropylcellulose) (HPC) 98 % of control

CCC(CC)(Cc1ccccc1)C(=O)NC(=O)NOC
inactive: dose: 100.0 mg/kg/injection, schedule: Q01DX Z (ip), vehicle: methylcellulose (MC) 98 % of control | dose: 200.0 mg/kg/injection, schedule: Q01DX Z (ip), vehicle: methylcellulose (MC) 96 % of control

CSC(=S)NNC(=O)c1cccc([N+](=O)[O-])c1
inactive: dose: 6.25 mg/kg/injection, schedule: Q04DX003 (ip), vehicle: saline sonified 95 % of control | dose: 12.5 mg/kg/injection, schedule: Q04DX003 (ip), vehicle: saline sonified 100 % of control | dose: 25.0 mg/kg/injection, schedule: Q04DX003 (ip), vehicle: saline sonified 101 % of control

Nc1nc(N)nc(-c2ccccn2)n1
inactive: dose: 12.5 mg/kg/injection, schedule: Q01DX009 (ip), vehicle: saline with Tween-80 105 % of control | dose: 25.0 mg/kg/injection, schedule: Q01DX009 (ip), vehicle: saline with Tween-80 92 % of control | dose: 50.0 mg/kg/injection, schedule: Q01DX009 (ip), vehicle: saline with Tween-80 105 % of control

CCCC(=O)N1CCCCCC1
inactive: [4] 92 % of control | [5] 113 % of control | [6] 95 % of control

O=C(Nc1ccc(Cl)cc1)Oc1ccc(Nc2ccccc2)cc1
inactive: dose: 100.0 mg/kg/injection, schedule: Q04DX002 (ip), vehicle: Klucel (hydroxypropylcellulose) (HPC) 114 % of control | dose: 200.0 mg/kg/injection, schedule: Q04DX002 (ip), vehicle: Klucel (hydroxypropylcellulose) (HPC) 111 % of control | dose: 400.0 mg/kg/injection, schedule: Q04DX002 (ip), vehicle: Klucel (hydroxypropylcellulose) (HPC) 111 % of control

C=CCc1cn(C2OC(COC(=O)c3ccc(Cl)cc3)C(OC(=O)c3ccc(Cl)cc3)C2O)c(=O)[nH]c1=O (stereo not given)
inactive: dose: 100.0 mg/kg/injection, schedule: Q01DX005 (ip), vehicle: saline 90 % of control | dose: 200.0 mg/kg/injection, schedule: Q01DX005 (ip), vehicle: saline 91 % of control

COc1ccc(COC(=O)Nc2cccc(Cl)c2)cc1OC
inactive: [3] 96 % of control | [7] 102 % of control | [8] 103 % of control

CSCC#N
inactive: dose: 100.0 mg/kg/injection, schedule: Q01DX001 (ip), vehicle: saline with Tween-80 93 % of control | dose: 200.0 mg/kg/injection, schedule: Q01DX001 (ip), vehicle: saline with Tween-80 96 % of control | dose: 400.0 mg/kg/injection, schedule: Q01DX001 (ip), vehicle: saline with Tween-80 96 % of control

C=NC1CCCCC1
inactive: dose: 100.0 mg/kg/injection, schedule: Q04DX002 (ip), vehicle: gum acacia 105 % of control | dose: 200.0 mg/kg/injection, schedule: Q04DX002 (ip), vehicle: gum acacia 105 % of control | dose: 400.0 mg/kg/injection, schedule: Q04DX002 (ip), vehicle: gum acacia 92 % of control
